# Reference: ChEMBL document CHEMBL4334471, “Discovery of 1,8-disubstituted-[1,2,3]triazolo[4,5-c]quinoline derivatives as a new class of Hippo signaling pathway inhibitors” (Bioorg Med Chem Lett, 2019)
# Key:
# [1] = target: NUAK family SNF1-like kinase 1 (Homo sapiens) (UniProt O60285); experiment: Inhibition of recombinant human ARK5 (2 to end residues) assessed as residual activity at 10 uM using KKKVSRSGLYRSPSMPENLNRPR as substrate incubated for 40 mins in presence of [gamma-33ATP] by scintillation counting based radiometry assay relative to control
# [2] = target: Proto-oncogene tyrosine-protein kinase Src (Homo sapiens) (UniProt P12931); experiment: Inhibition of recombinant human C-Src assessed as residual activity at 10 uM Cdc2 peptide as substrate incubated 40 mins in presence of [gamma-33ATP] by scintillation counting based radiometry assay relative to control
# [3] = target: Myotonin-protein kinase (Homo sapiens) (UniProt Q09013); experiment: Inhibition of recombinant human DMPK (1 to 549 residues) assessed as residual activity at 10 uM using KKSRGDYMTMQIG as substrate at 40 mins in presence of [gamma-33ATP] by scintillation counting based radiometry assay relative to control
# [4] = target: Epidermal growth factor receptor (Homo sapiens) (UniProt P00533); experiment: Inhibition of recombinant human EGFR (696 to end residues) assessed as residual activity at 10 uM using poly(Glu, Tyr) 4:1 as substrate at 40 mins in presence of [gamma-33ATP] by scintillation counting based radiometry assay relative to control
# Sequence of Epidermal growth factor receptor (Homo sapiens) (P00533 whole entry, the tested form may be a part): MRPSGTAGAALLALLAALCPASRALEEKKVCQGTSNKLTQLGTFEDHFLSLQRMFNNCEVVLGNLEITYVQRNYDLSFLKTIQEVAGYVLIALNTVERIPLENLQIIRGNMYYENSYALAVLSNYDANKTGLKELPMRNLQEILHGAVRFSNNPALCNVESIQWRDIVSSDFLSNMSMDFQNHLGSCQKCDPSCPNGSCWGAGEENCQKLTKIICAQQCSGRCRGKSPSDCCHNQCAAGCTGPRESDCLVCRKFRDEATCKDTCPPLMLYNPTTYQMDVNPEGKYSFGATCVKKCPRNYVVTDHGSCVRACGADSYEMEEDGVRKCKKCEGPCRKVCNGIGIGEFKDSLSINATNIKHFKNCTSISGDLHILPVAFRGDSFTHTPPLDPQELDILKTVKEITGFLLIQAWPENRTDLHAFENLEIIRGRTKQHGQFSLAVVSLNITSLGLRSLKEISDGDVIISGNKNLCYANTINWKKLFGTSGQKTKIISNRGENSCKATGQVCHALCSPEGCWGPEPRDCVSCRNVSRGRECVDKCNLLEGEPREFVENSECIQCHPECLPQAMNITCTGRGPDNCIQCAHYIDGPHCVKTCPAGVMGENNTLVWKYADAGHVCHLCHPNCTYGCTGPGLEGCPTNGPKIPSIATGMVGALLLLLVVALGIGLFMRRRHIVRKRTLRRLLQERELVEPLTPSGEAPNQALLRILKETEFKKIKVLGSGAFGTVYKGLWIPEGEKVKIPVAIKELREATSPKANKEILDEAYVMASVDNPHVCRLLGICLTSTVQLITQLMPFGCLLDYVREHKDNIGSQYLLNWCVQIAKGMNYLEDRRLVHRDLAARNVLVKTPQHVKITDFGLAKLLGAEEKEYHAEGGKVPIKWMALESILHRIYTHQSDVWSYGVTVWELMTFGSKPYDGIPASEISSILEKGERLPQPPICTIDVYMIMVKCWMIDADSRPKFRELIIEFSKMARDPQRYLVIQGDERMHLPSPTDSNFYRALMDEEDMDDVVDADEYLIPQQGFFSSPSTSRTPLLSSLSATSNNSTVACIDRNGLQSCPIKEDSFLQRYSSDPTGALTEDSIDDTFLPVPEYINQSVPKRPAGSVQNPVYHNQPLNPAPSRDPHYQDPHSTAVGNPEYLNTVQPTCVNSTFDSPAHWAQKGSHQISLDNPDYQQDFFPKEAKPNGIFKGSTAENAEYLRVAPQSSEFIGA
# [5] = target: Ephrin type-A receptor 4 (Homo sapiens) (UniProt P54764); experiment: Inhibition of recombinant human EphA4 (601 to 892 residues) assessed as residual activity at 10 uM using poly(Glu, Tyr) 4:1 as substrate at 40 mins in presence of [gamma-33ATP] by scintillation counting based radiometry assay relative to control
# [6] = tested on: Receptor tyrosine-protein kinase erbB-2 (Homo sapiens), P04626 [G778D]; experiment: Inhibition of recombinant human ERBB2 G778D mutant (676 to end residues) assessed as residual activity at 10 uM using poly(Glu, Tyr) 4:1 as substrate at 40 mins in presence of [gamma-33ATP] by scintillation counting based radiometry assay relative to control
# [7] = target: Receptor tyrosine-protein kinase erbB-4 (Homo sapiens) (UniProt Q15303); experiment: Inhibition of recombinant human ERBB4 (706 to 991 residues) assessed as residual activity at 10 uM using poly(Glu, Tyr) 4:1 as substrate at 40 mins in presence of [gamma-33ATP] by scintillation counting based radiometry assay relative to control
# Sequence of Receptor tyrosine-protein kinase erbB-4 (Homo sapiens) (Q15303 whole entry, the tested form may be a part): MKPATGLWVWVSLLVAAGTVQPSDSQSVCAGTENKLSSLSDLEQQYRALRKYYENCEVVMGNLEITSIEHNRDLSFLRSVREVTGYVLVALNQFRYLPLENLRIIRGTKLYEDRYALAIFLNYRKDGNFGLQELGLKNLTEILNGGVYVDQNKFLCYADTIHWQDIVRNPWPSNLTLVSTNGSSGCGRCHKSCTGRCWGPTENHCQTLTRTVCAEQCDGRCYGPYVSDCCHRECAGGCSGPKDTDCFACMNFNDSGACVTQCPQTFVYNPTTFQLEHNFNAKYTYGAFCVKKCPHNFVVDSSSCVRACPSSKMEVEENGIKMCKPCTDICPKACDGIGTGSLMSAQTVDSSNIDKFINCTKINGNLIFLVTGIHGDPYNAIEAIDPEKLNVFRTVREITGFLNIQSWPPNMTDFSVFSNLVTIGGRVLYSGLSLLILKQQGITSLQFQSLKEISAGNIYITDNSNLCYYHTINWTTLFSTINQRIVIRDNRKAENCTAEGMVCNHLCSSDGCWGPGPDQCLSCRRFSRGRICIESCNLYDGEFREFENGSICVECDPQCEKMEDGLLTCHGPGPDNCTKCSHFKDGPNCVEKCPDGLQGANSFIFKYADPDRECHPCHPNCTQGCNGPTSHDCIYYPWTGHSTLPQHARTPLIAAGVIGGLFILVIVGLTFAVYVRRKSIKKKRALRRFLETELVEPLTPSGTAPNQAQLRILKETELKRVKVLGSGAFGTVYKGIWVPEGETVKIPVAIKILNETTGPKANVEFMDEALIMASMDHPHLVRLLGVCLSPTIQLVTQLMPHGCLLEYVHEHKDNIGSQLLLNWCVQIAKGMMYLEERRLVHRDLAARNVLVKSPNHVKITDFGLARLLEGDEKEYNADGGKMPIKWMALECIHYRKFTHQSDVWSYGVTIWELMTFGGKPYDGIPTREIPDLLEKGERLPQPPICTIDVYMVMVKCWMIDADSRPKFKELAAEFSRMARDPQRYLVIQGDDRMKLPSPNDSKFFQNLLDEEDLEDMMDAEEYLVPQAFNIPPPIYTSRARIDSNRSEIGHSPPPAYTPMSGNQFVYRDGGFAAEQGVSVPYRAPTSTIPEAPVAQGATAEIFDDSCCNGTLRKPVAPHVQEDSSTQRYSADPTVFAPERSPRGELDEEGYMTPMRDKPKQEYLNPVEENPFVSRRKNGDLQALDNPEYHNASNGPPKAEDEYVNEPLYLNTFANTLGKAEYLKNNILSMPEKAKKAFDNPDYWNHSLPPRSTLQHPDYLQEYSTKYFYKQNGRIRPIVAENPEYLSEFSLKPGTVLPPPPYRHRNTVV
# [8] = tested on: Receptor-type tyrosine-protein kinase FLT3 (Homo sapiens), P36888 [D835Y]; experiment: Inhibition of recombinant human FLT3 D835Y mutant (564 to end residues) assessed as residual activity at 10 uM using EAIYAAPFAKKK as substrate at 40 mins in presence of [gamma-33ATP] by scintillation counting based radiometry assay relative to control
# [9] = target: Inhibitor of nuclear factor kappa-B kinase subunit beta (Homo sapiens) (UniProt O14920); experiment: Inhibition of full length human IKKbeta assessed as residual activity at 10 uM using peptide as substrate after 40 mins by [gamma-33ATP] radiometric assay relative to control
# [10] = target: Inhibitor of nuclear factor kappa-B kinase subunit epsilon (Homo sapiens) (UniProt Q14164); experiment: Inhibition of full length human IKKepsilon assessed as residual activity at 10 uM using peptide as substrate after 40 mins by [gamma-33ATP] radiometric assay relative to control
# [11] = target: Insulin receptor (Homo sapiens) (UniProt P06213); experiment: Inhibition of human IR activated (1005 to 1310 residues) assessed as residual activity at 10 uM using KKSRGDYMTMQIG as substrate after 40 mins by [gamma-33ATP] radiometric assay relative to control
# Sequence of Insulin receptor (Homo sapiens) (P06213 28-758 limits assumed): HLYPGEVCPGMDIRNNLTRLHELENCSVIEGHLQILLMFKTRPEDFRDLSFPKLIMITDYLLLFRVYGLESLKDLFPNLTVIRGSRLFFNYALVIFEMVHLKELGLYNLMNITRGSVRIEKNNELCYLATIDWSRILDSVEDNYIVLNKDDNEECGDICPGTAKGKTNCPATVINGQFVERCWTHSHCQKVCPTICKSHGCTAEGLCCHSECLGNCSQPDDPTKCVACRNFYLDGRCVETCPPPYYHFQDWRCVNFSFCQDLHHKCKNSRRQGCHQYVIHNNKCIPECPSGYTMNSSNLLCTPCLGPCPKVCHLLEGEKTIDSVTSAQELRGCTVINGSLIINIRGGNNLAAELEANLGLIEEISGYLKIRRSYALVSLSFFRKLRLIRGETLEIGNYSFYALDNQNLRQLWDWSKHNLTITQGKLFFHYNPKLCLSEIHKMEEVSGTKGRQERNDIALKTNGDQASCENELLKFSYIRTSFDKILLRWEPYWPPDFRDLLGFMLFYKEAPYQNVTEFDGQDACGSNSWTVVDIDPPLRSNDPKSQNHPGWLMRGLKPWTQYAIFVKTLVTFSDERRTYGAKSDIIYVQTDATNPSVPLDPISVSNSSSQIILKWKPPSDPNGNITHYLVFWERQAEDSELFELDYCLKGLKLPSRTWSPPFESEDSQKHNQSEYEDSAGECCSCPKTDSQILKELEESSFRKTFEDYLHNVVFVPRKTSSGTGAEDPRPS
# Sequence of Insulin receptor (Homo sapiens) (P06213 763-1382 limits assumed): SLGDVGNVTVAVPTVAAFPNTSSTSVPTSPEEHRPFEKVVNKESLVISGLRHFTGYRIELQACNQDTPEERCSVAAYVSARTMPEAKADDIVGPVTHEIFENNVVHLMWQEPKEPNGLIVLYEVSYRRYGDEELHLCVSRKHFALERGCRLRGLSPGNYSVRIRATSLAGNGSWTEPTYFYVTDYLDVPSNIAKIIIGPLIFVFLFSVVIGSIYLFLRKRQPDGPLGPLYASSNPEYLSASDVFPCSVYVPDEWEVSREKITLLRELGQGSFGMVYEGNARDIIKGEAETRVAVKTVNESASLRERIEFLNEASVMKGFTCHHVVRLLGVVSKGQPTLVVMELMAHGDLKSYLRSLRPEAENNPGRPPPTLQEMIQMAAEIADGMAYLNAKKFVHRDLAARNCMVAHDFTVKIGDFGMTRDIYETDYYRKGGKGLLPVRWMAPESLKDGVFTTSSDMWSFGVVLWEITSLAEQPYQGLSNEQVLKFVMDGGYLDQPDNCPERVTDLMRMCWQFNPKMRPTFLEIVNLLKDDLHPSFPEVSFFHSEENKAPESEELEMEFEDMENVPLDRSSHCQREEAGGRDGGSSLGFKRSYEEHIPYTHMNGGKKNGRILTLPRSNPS
# [12] = target: Insulin receptor-related protein (Homo sapiens) (UniProt P14616); experiment: Inhibition of human IRR (943 to 1266 residues) assessed as residual activity at 10 uM using myelin basic protein as substrate after 40 mins by [gamma-33ATP] radiometric assay relative to control
# [13] = target: Misshapen-like kinase 1 (Homo sapiens) (UniProt Q8N4C8); experiment: Inhibition of recombinant human MINK (1 to 320 residues) assessed as residual activity at 10 uM using myelin basic protein as substrate incubated for 40 mins in presence of [gamma-33ATP by scintillation counting based radiometry assay relative to control
# [14] = target: Serine/threonine-protein kinase 3 (Homo sapiens) (UniProt Q13188); experiment: Inhibition of recombinant human MST2 (2 to end residues) assessed as residual activity at 10 uM using myelin basic protein as substrate measured after 40 mins in presence of [gamma33P]ATP by scintillation counting based radiometry assay relative to control
# Sequence of Serine/threonine-protein kinase 3 (Homo sapiens) (Q13188 whole entry): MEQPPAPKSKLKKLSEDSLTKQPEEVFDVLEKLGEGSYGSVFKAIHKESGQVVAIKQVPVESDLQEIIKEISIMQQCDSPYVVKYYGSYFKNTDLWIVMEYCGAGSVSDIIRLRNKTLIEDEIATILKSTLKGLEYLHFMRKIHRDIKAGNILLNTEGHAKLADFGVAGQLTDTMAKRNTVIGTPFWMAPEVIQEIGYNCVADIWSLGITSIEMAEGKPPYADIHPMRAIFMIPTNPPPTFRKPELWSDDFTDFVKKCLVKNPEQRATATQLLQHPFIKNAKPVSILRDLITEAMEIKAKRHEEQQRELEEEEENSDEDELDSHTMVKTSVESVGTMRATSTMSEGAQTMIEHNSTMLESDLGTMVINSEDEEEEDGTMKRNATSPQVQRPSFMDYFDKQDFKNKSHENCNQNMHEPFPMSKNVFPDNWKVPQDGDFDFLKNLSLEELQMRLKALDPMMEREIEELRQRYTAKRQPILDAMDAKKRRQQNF
# [15] = target: Serine/threonine-protein kinase Nek6 (Homo sapiens) (UniProt Q9HC98); experiment: Inhibition of recombinant human NEK6 (2 to end residues) assessed as residual activity at 10 uM using FLAKSFGSPNRAYKK as substrate measured after 40 mins in presence of [gamma33P]ATP by scintillation counting based radiometry assay relative to control
# [16] = target: Serine/threonine-protein kinase Nek7 (Homo sapiens) (UniProt Q8TDX7); experiment: Inhibition of recombinant human NEK7 (2 to end residues) assessed as residual activity at 10 uM using FLAKSFGSPNRAYKK as substrate measured after 40 mins in presence of [gamma33P]ATP by scintillation counting based radiometry assay relative to control
# Sequence of Serine/threonine-protein kinase Nek7 (Homo sapiens) (Q8TDX7 whole entry, looked up, the tested form may be a part): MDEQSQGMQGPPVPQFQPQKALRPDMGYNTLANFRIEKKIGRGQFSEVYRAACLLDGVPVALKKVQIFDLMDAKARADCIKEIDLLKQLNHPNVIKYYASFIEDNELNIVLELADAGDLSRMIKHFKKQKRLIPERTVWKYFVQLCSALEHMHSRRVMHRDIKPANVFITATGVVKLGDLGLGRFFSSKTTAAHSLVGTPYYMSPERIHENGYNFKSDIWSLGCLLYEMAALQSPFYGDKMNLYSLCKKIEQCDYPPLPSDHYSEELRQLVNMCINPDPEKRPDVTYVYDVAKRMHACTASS
# [17] = target: Serine/threonine-protein kinase Nek9 (Homo sapiens) (UniProt Q8TD19); experiment: Inhibition of recombinant human NEK9 (1 to 324 residues) assessed as residual activity at 10 uM using myelin basic protein as substrate measured after 40 mins in presence of [gamma33P]ATP by scintillation counting based radiometry assay relative to control
# [18] = tested on: Ribosomal protein S6 kinase alpha-1 (Rattus norvegicus), Q63531 [S637N,G697A]; experiment: Inhibition of recombinant full length rat Rsk1 S637N/G697A mutant assessed as residual activity at 10 uM using KKKNRTLSVA as substrate incubated for 40 mins in presence of [gamma33P]ATP by scintillation counting based radiometry assay relative to control
# [19] = target: Testis-specific serine/threonine-protein kinase 3 (Homo sapiens) (UniProt Q96PN8); experiment: Inhibition of recombinant full-length human TSSK3 assessed as residual activity at 10 uM using AMARAASAAALARRR as substrate incubated for 40 mins in presence of [gamma33P]ATP by scintillation counting based radiometry assay relative to control
# Sequence of Testis-specific serine/threonine-protein kinase 3 (Homo sapiens) (Q96PN8 whole entry): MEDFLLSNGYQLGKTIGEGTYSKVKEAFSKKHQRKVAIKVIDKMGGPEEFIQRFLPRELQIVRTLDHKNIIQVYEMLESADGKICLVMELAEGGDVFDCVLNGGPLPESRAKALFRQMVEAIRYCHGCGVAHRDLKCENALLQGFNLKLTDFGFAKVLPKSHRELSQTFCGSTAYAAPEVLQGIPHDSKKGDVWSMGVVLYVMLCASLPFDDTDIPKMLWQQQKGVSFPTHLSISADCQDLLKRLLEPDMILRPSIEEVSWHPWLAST
# Homo sapiens = species: Homo sapiens; experiment: Inhibition of recombinant human full length PI3K p110/p65 assessed as residual activity at 10 uM using phosphatidylinositol-4, 5-bisphosphate as substrate incubated for 40 mins in presence of [gamma33P]ATP by scintillation counting based radiometry assay relative to control
# [20] = target: Phosphatidylinositol 4-phosphate 5-kinase type-1 alpha (Homo sapiens) (UniProt Q99755); experiment: Inhibition of recombinant full-length human PIP5K1alpha assessed as residual activity at 10 uM using phosphatidylinositol 5-phosphate as substrate by HTRF assay relative to control
smiles,measurement,setting,value
C[C@@H](c1ccccc1)n1nnc2cnc3ccc(-c4cnc5[nH]ccc5c4)cc3c21,Activity,[1],73%
same,Activity,[2],27%
same,Activity,[3],89%
same,Activity,[4],90%
same,Activity,[5],81%
same,Activity,[6],120%
same,Activity,[7],73%
same,Activity,[8],42%
same,Activity,[9],96%
same,Activity,[10],94%
same,Activity,[11],62%
same,Activity,[12],86%
same,Activity,[13],81%
same,Activity,[14],57%
same,Activity,[15],72%
same,Activity,[16],119%
same,Activity,[17],97%
same,Activity,[18],71%
same,Activity,[19],64%
same,Activity,Homo sapiens,3%
same,Activity,[20],73 to 83%
